Among the data in patent publication US6610710B2, “Phenylalanine derivatives” (Ajinomoto Co., Inc., priority 1999, dated 2003) are IC50 values, retold here.

In the assay the target is T1, integrin α4β1 (Jurkat cells) binding with recombinant human VCAM-1 (Homo sapiens, UniProt P05556+P13612).
T1 construct: cell strain Jurkat (ATCC TIB-152) of human T cells, known to express integrin α4β1; endogenous in cells; host or cells: Jurkat (ATCC TIB-152), human T cells
T1 sequence (P13612 34-1032): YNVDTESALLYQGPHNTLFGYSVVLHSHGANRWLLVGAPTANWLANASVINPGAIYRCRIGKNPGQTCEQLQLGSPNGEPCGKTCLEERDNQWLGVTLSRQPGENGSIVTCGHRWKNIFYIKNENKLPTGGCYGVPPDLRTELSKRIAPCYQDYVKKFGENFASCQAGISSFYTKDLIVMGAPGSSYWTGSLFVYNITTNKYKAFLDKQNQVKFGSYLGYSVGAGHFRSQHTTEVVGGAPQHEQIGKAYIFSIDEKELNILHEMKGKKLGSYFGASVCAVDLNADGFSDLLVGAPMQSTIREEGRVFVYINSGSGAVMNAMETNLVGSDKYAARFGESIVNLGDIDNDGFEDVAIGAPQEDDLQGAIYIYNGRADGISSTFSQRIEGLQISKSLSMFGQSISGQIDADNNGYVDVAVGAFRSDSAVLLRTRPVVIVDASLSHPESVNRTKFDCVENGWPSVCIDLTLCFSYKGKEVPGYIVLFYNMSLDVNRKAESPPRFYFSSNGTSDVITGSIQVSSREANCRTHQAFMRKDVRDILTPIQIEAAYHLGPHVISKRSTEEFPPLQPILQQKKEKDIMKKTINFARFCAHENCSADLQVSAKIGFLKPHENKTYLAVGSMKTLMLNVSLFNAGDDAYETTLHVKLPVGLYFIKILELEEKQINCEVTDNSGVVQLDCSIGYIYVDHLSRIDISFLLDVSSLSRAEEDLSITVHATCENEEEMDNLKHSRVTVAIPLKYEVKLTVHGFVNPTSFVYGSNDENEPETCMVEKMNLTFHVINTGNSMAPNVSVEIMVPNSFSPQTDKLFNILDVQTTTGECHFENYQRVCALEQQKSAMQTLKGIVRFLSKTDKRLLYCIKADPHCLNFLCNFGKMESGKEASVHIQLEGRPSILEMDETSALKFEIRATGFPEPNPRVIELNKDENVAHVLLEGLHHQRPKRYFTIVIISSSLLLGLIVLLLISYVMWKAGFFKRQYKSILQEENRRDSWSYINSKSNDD
T1 sequence (P05556 21-798): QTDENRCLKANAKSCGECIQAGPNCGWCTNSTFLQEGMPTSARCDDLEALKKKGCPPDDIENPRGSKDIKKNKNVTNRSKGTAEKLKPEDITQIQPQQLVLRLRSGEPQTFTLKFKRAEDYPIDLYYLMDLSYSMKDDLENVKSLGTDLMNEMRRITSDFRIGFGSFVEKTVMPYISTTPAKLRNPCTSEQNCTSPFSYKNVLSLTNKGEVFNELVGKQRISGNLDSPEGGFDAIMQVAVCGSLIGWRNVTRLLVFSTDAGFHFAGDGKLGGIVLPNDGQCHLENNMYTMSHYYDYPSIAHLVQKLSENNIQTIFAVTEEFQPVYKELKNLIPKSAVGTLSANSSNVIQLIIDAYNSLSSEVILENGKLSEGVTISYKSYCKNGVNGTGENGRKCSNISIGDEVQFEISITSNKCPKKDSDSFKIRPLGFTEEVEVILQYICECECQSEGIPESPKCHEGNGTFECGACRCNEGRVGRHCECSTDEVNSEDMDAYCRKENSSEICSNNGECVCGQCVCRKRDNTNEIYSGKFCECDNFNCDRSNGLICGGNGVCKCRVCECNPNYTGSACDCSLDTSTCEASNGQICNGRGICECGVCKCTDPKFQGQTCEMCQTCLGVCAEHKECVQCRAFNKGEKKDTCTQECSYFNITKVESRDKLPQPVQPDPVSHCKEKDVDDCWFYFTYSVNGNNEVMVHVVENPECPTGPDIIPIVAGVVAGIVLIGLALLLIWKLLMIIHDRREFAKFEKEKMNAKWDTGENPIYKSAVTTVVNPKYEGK
As to the kind of experiment: VCAM antagonistic activity (VCAM-1/α4β1 binding assay), Jurkat cell adhesion. It is filed as cell-based. The settings on record: read-out: VCAM/α 4 β 1 antagonistic activity to integrin (IC50). How it is done: (Test Example) VCAM Antagonistic Activity (VCAM-1/α4β1 Binding Assay):
The capacity of a test substance antagonistic to the binding of cell strain Jurkat (ATCC TIB-152) of human T cells, known to express integrin α4β1, with VCAM-1 was determined. 100 μl/well of a solution (500 ng/ml ) of recombinant human VCAM-1 (R & D systems) diluted with buffer A (0.1 M NaHCO3, pH 9.6) was added to a micro titer plate having 96 wells (Nunc Maxisorp). After the incubation at 4° C. overnight, unbound VCAM-1 was removed by once washing with PBS. After completion of the washing, a buffer (buffer B) obtained by diluting Block Ace® (Dainippon Pharmaceutical Co., Ltd.) with PBS to 1/4 concentration was added in an amount of 150 μl /well. After the incubation at room temperature for 1 hour, buffer B was removed and the plate was washed with PBS once.
Jurkat cells were washed with Dulbecco modified Eagle medium (SIGMA, hereinafter referred to as “DMEM”) twice and then incubated in DMEM containing 10 μg/ml of Calcein-AM (Wako Pure Chemical Industries, Ltd.) at 37° C. in dark place for 30 minutes to label them with fluorescence. The cells were again suspended in a binding buffer (DMEM containing 20 mM HEPES, 0.1% BSA).
50 μl of a test substance of various concentrations obtained by the dilution with the binding buffer was added to the plate. Immediately thereafter, 50 μl (final volume: 100 μl/well) of the fluorescent Jurkat cells (4×10^6 cells/ml ) were added thereto, and they were incubated at room temperature for 30 minutes. After the shaking on a plate shaker (IKA MTS-4) at 800 rpm for 30 seconds, the solution was immediately removed to remove the unbound cells. The fluorescence quantity of the bound cells remaining in the wells was determined with a fluorescent plate reader (Wallac 1420 ARVO multi-label counter) (filter excitation wave length: 485 nm, emission wave length: 535 nm). The fluorescent strength thus obtained is proportional to the number of Jurkat cells bound to VCAM-1 and remaining on the plate. The binding rate of each test material in various concentrations was determined while the fluorescent strength of the test material-free well was determined to be 100%. The concentration IC50 for the 50% binding inhibition was calculated.
On to `O=C(O)[C@H](Cc1ccc(OCc2c(Cl)cccc2Cl)cc1)NC(=O)[C@H]1CC[C@H](C(=O)O)CC1` [Example 2, N-(Trans-4-carboxycyclohexane-1-carbonyl)-O-(2,6-dichlorobenzyl)-L-tyrosine], for which the IC50 lay within 5 to 25 µM.

With `O=C(O)[C@H](Cc1ccc(OCc2c(Cl)cccc2Cl)cc1)NC(=O)[C@H]1CC[C@H](C(=O)NNc2ccccc2)CC1` [Example 3, N-(Trans-4-phenylhydrazinocarbonylcyclohexane-1-carbonyl)-O-(2,6-dichlorobenzyl)-L-tyrosine], the IC50 was 25 to 50 µM. In the case of `O=C(O)[C@H](Cc1ccc(OCc2c(Cl)cccc2Cl)cc1)NC(=O)[C@H]1CC[C@H](C(=O)NNc2ccc(Br)cc2)CC1` [Example 4, N-[Trans-4-(4-bromophenylhydrazinocarbonyl)cyclohexane-1-carbonyl]-O-(2,6-dichlorobenzyl)-L-tyrosine] it was 25 to 50 µM; in that of `O=C(O)[C@H](Cc1ccc(OCc2c(Cl)cccc2Cl)cc1)NC(=O)[C@H]1CC[C@H](C(=O)NCc2ccccc2)CC1` [Example 6], 25 to 50 µM.

On to `COc1ccc(NNC(=O)[C@H]2CC[C@H](C(=O)N[C@@H](Cc3ccc(OCc4c(Cl)cccc4Cl)cc3)C(=O)O)CC2)cc1` [Example 14], for which the IC50 was 1 to 5 µM. As to `Cc1ccc(NNC(=O)[C@H]2CC[C@H](C(=O)N[C@@H](Cc3ccc(OCc4c(Cl)cccc4Cl)cc3)C(=O)O)CC2)cc1` [Example 34], the IC50 was in the range of 1 to 5 µM. In the case of `O=C(O)[C@H](Cc1ccc(OCc2c(Cl)cccc2Cl)cc1)NC(=O)[C@H]1CC[C@H](C(=O)NNc2ccc(OC(F)(F)F)cc2)CC1` [Example 35] it was 25 to 50 µM.

As to `COc1cccc(NNC(=O)[C@H]2CC[C@H](C(=O)N[C@@H](Cc3ccc(OCc4c(Cl)cccc4Cl)cc3)C(=O)O)CC2)c1` [Example 44], the IC50 lay within 5 to 25 µM. As to `O=C(Nc1ccc(C[C@H](NC(=O)[C@H]2CC[C@H](C(=O)O)CC2)C(=O)O)cc1)c1snnc1-c1ccccc1` [Example 45, N-(Trans-4-carboxycyclohexane-1-carbonyl)-4-{[(4-phenyl-1,2,3-thiadiazole-5-yl)carbonyl]amino}-L-phenylalanine], the IC50 lay within 1 to 5 µM. Turning to `COc1ccc(NNC(=O)[C@H]2CC[C@H](C(=O)N[C@@H](Cc3ccc(NC(=O)c4snnc4-c4ccccc4)cc3)C(=O)O)CC2)cc1` [Example 46, N-[Trans-4-(4-methoxyphenylhydrazinocarbonyl)cyclohexane-1-carbonyl]-4-{[(4-phenyl-1,2,3-thiadiazole-5-yl)carbonyl]amino}-L-phenyl-alanine], the IC50 was in the range of 5 to 25 µM. On to `COc1cccc(OC)c1-c1ccc(C[C@H](NC(=O)[C@H]2CC[C@H](C(=O)O)CC2)C(=O)O)cc1` [Example 50, N-(Trans-4-carboxycyclohexane-1-carbonyl)-4-(2,6-dimethoxyphenyl)-L-phenylalanine], for which the IC50 was 1 to 5 µM.

Turning to `COc1ccc(NNC(=O)[C@H]2CC[C@H](C(=O)N[C@@H](Cc3ccc(-c4c(OC)cccc4OC)cc3)C(=O)O)CC2)cc1` [Example 51, N-[Trans-4-(4-methoxyphenylhydrazinocarbonyl)cyclohexane-1-carbonyl]-4-(2,6-dimethoxyphenyl)-L-phenylalanine], the IC50 is 1 to 5 µM.
